Assay results reported in US11925643B2, “Toll-like receptor 4 (TLR4) inhibitors and use thereof” (MOR RESEARCH APPLICATIONS LTD., priority 2018, dated 2024).
Residues, ends and D or L forms follow the SMILES beside them.

Legend:
primary cardiomyocytes = assay: CK and LDH release by primary cardiomyocytes under hypoxia (MI like); type: cell-based, Rat
Protocol: Rat hearts (1-2 days old) were removed under sterile conditions and washed three times in phosphate-buffered saline (PBS) to remove excess blood cells. The hearts were minced and then gently agitated in RBD (a solution of proteolytic enzymes (Biological Institute, Ness-Ziona, Israel) prepared from fig tree extract, and diluted 1:100 in Ca^2+- and Mg^2+-free PBS) for a few cycles of 10 min each. Dulbecco's modified Eagle's medium (Biological Industries, Kibbutz Beit Haemek, Israel) containing 10% horse serum was added to supernatant suspensions containing the dissociated cells. The mixture was centrifuged at 1400 rpm for 4 min. The supernatant phase was discarded, and the cells were re-suspended. The cell suspension was diluted to 1.0×10^6 cells/ml, unless stated otherwise, and 1.5 ml of the suspension was placed in 35-mm plastic culture dishes collagen- or gelatin-coated, or on coated cover glasses. The cultures were incubated in a humidified atmosphere of 5% CO2 and 95% air at 37° C.
Using a vacuum pump, the oxygen rich air was evacuated from an incubator containing plates with cell cultures, and a 100% Argon atmosphere was let in, while maintaining a temperature of 37° C. The cell cultures were washed with PBS twice to remove glucose from the medium. Hypoxic treated cells were cultures in PBS without glucose. These cells lasted for 180 minutes.
Primary cardiomyocytes which were obtained by method described above, were treated with exemplary decoy peptides described herein. After 30 minutes of incubation, sepsis like (LPS treatment for 6 hours), or myocardial infarction (MI) like (hypoxia for 3 hours) conditions were imposed to measure the release of CK and LDH to the medium and determine the potential cardioprotective effect of the tested decoy peptides. Cytotoxicity and level of cell damage were assessed by spectrophotometric measurement of lactate dehydrogenase (LDH) and creatine kinase (CK) activities (at 30° C.). Results are presented as CK and LDH release in arbitrary units (a.u.)
Activity of LDH and CK was determined in the cell-culture medium (25 μl) transferred into 96-well plates, using commercial L-LDH/CK kits (such as those manufactured, e.g., by Sigma-Aldrich, BioVision™ or Thermo Fisher Scientific®).
Primary cardiomyocytes were treated with peptides and peptidomimetics of SEQ ID NOs:1-7 provided at concentrations ranging from 1 μM to 20 μM. Following 30 minutes of incubation, sepsis like (LPS treatment for 6 hours) or MI like (hypoxia for 3 hours) conditions were induced to determine the potential cardioprotective effect of the tested compounds. Creatine kinase (CK) and lactate dehydrogenase (LDH) activity were assayed to determine the level of cellular damage and cell protection effect. The experimental procedure is described in Materials and Methods above. Results are presented as CK and LDH release in arbitrary units (a.u.).

IκB = IκB protein level by Western blot in hypoxic cardiomyocytes; type: cell-based
Protocol: Frozen tissue/cell cultures of liver or heart were pulverized under liquid nitrogen and placed in a homogenization buffer ([…] phosphate buffer, […] sucrose, […] EDTA, […] phenylmethylsulfonyl fluoride (PMSF), and 0.1% vol/vol tergitol, pH 7.5). Myocytes from cell cultures were homogenized in lysis buffer.
Homogenates were centrifuged at 12K rpm for 10 minutes at 4° C., the supernatant was isolated, and protein levels were visualized by immunoblotting with antibodies. Briefly, proteins (60 μg/sample) were separated using SDS-PAGE gel (12%-15%) under denaturing conditions and electro-transferred (blotted) onto nitrocellulose (Bio-Rad) for 1 hour at 100 V. Membranes were blocked with 5% nonfat milk in Tris-buffered saline with 0.1% Tween® 20 (TBST) for 1 hour at room temperature. Primary antibodies were used at a 1:200-1:1000 concentration in TBST with 5% nonfat milk overnight at 4° C. Immunodetection of β-actin/GPDH was performed as an internal control. Dye 800/680 secondary antibodies were added at a concentration of 1:15000 for 1 hour at room temperature (LI-COR® Biosciences, NE, USA). Detection was carried out with LI-CORE® Odyssey® imaging system. Quantification of signals was carried out with the Odyssey® program.
The mechanism of action of peptidomimetics of SEQ ID NOs:1, 2 and 12 was studied in vitro in cardiomyocytes, under hypoxic conditions, by determining the expression level of the IκB gene, which is regulated by activation of TLR4, and by measuring the TLR4 mRNA levels. In addition, TLR4 expression level was measured in macrophage (derived from monocytes) treated with LPS.
IκB protein level was determined by Western blot as described in Material and Methods. The amount of IκB was normalized via-a-vis the amount of β-actin serving as the loading control (the β-actin is coded by a housekeeping gene and its level is expected to remain constant under any experimental conditions).

TLR4 mRNA = TLR4 mRNA level by RT-qPCR in hypoxic cardiomyocytes; type: cell-based; settings: hypoxic conditions
Protocol: (§1) Real-time RT-PCR experiments were performed in duplicates on an ABI 7900 instrument (Applied Biosystems™) using Taqman™ Master Mix (Applied Biosystems™). The average threshold cycles (Ct) of the duplicates were used to calculate the relative expression levels of the following genes: TLR4 (Applied Biosystems™ assay primer ID: Mm00569848_m1 Tlr4), TLR2 (assay primer ID: Mm01769726_m1 Tlr2), TNF-α (assay primer ID: Mm00443260_g1 Tnf) and IL-1β (assay primer ID: Mm00434228_m1 II1b) in vitro and in vivo following hypoxia or ischemia, respectively. The reference gene was TBP and the primer used was derived from mouse TATA-box binding protein (Applied Biosystems™ assay primer ID: Mm00446973_m1 Tbp). Amounts of TLR2, TLR4, TNF-α and IL-1β mRNAs in each sample were calculated relative to TBP mRNA, based on the corresponding Cts, as Relative Quantity (RQ) values, and normalized taking as 1 a randomly selected sample of the control group (TBP mRNA). Calculation were performed using the Applied Biosystems Analysis™ software (StepOnePlus V2.2.2). All mRNA scores are presented in arbitrary units.
Next, peptidomimetics of SEQ ID NOs:1 and 2 were tested for their ability to affect the expression of TLR4. The level of TLR4 mRNA was measured by real-time reverse transcriptase polymerase chain reaction (RT-qPCR) method as described in Materials and Methods. The possible effect of both compounds on expression levels of TLR2 mRNA was used as a negative control.

IL-1β mRNA = IL-1β mRNA level by RT-qPCR in hypoxic cardiomyocytes; type: cell-based; settings: hypoxic conditions
Protocol: as §1, with “Calculation were performed using the Applied Biosystems Analysis™ software (StepOnePlus V2.2.2). All mRNA scores are presented in arbitrary units.” left out
Decoy peptides represented by compounds PM1-PM10 were tested in vitro for their ability to decrease the level of CK and LDH released by stressed cardiomyocytes following exposure to LPS or hypoxic stimulation, and further evaluated for their ability to affect the level of IL-1β and TLR4 mRNA, and expression of IκB and TLR4 proteins, according to the protocols described in Materials and Methods and in Example 5 herein above.

Row | SMILES | minimal effective concentration (cardioprotective effect, CK and LDH release) (primary cardiomyocytes) [µM] | IκB level (IκB; normalized to β-actin) | TLR4 mRNA expression level (TLR4 mRNA) | CK release (primary cardiomyocytes; 20 μM) | LDH release (primary cardiomyocytes; 20 μM) | inhibition of decrease of IκB protein level (IκB; 20 μM, compared to hypoxic cells not treated) | inhibition of TLR4 mRNA production (TLR4 mRNA) [fold] | inhibition of IL-1β mRNA production (IL-1β mRNA) [fold]
1 | CC[C@H](C)[C@H](NC(C)=O)C(=O)N[C@H](C(=O)N[C@@H](Cc1ccccc1)C(=O)N[C@@H](C)C(N)=O)C(C)C [SEQ ID NO:1, (2S,3S)-2-acetamido-N-((S)-1-(((S)-1-(((S)-1-amino-1-oxopropan-2-yl)amino)-1-oxo-3-phenylpropan-2-yl)amino)-3-methyl-1-oxobutan-2-yl)-3-methylpentanamide] (Ac-IVFA-NH2) | 1 | high levels | significantly decreased |  |  |  |  | 
2 | CCCCCCCCNc1nc(=O)n(Cc2ccccc2)cc1C [PM6, 1-benzyl-5-methyl-4-(octylamino)pyrimidin-2(1H)-one] |  |  |  | significant reduction | significant reduction | roughly 7 fold | ~3.3 | ~12
